The term pIC50 denotes the IC50 on a negative log10 scale, so that one unit is a factor of ten.

pIC50: −log10 of the molar value. Read-outs that look alike come from different tables or passages of the source.

The source of these data is publication PMC6030240 (Molecules and Cells, 2018).

Experiment [1] deals with T1, Spleen tyrosine kinase (SYK) (Homo sapiens, UniProt P43405). Nature of the experiment: co-crystal structure at […] Å. It is filed as biochemical.
Experiment [2] has as its target T1, Spleen tyrosine kinase (SYK). The experiment can be described thus: co-crystal structure at […] Å. It is filed as biochemical. The source holds these as a separate data set.

In experiment [1], `Cn1ncc2cc(Nc3nc(N4CCC(O)CC4)nc4cc[nH]c(=O)c34)ccc21` [SKI-G-618, 2-(4-hydroxypiperidin-1-yl)-4-((1-methyl-1H-indazol-5-yl)amino)pyrido[4,3-d]pyrimidin-5(6H)-one] gave a pIC50 of 7.75.
In the case of `CS(=O)(=O)c1ccc(Nc2nc(N[C@H]3CCCC[C@@H]3N)nc3cc[nH]c(=O)c23)cc1` [SKI-O-85, (1S,2S)-2-((4-((4-(methylsulfonyl)phenyl)amino)-5-oxo-5,6-dihydropyrido[4,3-d]pyrimidin-2-yl)amino)cyclohexan-1-aminium], in experiment [2], the pIC50 was 6.68.
